In patent publication US20140243351A1, “DRUG FOR THE TREATMENT OF ALLERGIC RHINITIS COMPRISING PGD2 ANTAGONIST AND HISTAMINE ANTAGONIST” (Shionogi & Co., Ltd., priority 2011, published 2014):
Where two headings read alike, the source gives them in different places. Marks after values point to notes of the source that are not given here.

What was measured:
[1] = tested on: guinea pig rhinitis model induced with PGD2 and histamine; test: Evaluation Test 3, guinea pig rhinitis model induced with PGD2 and histamine, nasal airway resistance; type: in vivo; conditions: oral, each agent at 10 mg/kg; about 10 minutes after PGD2 + histamine challenge
Source text: The pharmacological efficacy evaluation was made using 9 to 12 week-old male Harley guinea pigs in the following manner. Specifically, the guinea pigs were divided into the following groups: Group 1: Control Group (a group administered with a medium alone to a guinea pig); […] [table]

[2] = tested on: patients with seasonal allergic rhinitis; test: Evaluation test on pharmacological efficacy on patients with seasonal allergic rhinitis (daytime nasal symptom scores)
Procedure: Each of the groups was asked to take each preparation in accordance with the following medication schedule. Thereafter, each of the patients was daily evaluated on daytime nasal symptoms, e.g. sneezing attacks, nasal discharge, nasal congestion, and nasal itching, in accordance with the following evaluation criteria. The results were analyzed. The lower the nasal symptom scores, more alleviated the nasal symptoms.
The medication was scheduled for a total of about 6 to 18 weeks, including a screening period of from 0 days to 12 weeks, a placebo introducing period of from 4 to 7 days, an ingestion period for each preparation of 4 weeks, and a post-observation period of 1 week.
Here, the evaluation criteria for sneezing, nasal discharge, and nasal congestion were conducted in 5-ranks from scores 0 to 4, and the evaluation criterion for nasal itching was conducted in 4-ranks of scores 0 to 3.
As to the nasal symptoms evaluated by each patient, average scores/day at time points 1, 2, 3, and 4 weeks after the administration, and the week just before the administration (for example, at a time point of 2 weeks after the administration refers to a one-week period from one week after the administration to the second week) were calculated, and changes since the start of the test were calculated and used in analysis. Here, in the between-group comparison distribution of the background factors, Fisher's exact test was used for nominal scale data, and Kruskal-Wallis test was used for continuous data or ordinal scale data. In both tests, the significance levels were set at 0.15 on both sides. In the analyses of nasal symptom items, the between-group comparison according to covariance analysis of an average change after two weeks from the administration, the between-group comparison according to covariance analysis of a change on a weekly basis, the between-group comparison of a change on a weekly basis using a linear model, and the between-group comparison according to chi-square test of improvement rate on a weekly basis were conducted. In all the comparisons, the significance level was set at 0.05 on both sides. In addition, as to the changes of nasal symptoms on a weekly basis, the between-group comparison according to covariance analysis for changes on a weekly basis using a linear model was conducted. Further, the between-group comparison according to chi-square test of improvement rate of each of the daytime nasal symptoms on a weekly basis was conducted. In the covariance analysis for a change on a weekly basis, in cases where data each week were not measured, the data were supplemented according to Last Observation Carried Forward (LOCF) method.

[3] = tested on: seasonal allergic rhinitis patients; test: Clinical test (Ph 2, protocol 077) on seasonal allergic rhinitis, Non-Patent Publication 1; type: in vivo, human; conditions: beclomethasone versus loratadine, change per symptom from placebo
Source text: For example, Journal of Asthma, 46, 878-883, 2009 (Non-Patent Publication 1) describes clinical test results (Ph 2, protocol 077) on seasonal allergic rhinitis for a patient group administered with montelukast as an LT receptor antagonist, a patient group administered with loratadine as a histamine H1 receptor antagonist, and a patient group administered with beclomethasone as an intranasal steroid (see Table 3 in the publication). Here, the nasal symptoms, i.e. sneezing, nasal discharge, nasal congestion, and nasal itching, after two weeks since the start of the oral administration are scored to be evaluated.
Furthermore, Table 3 of Non-Patent Publication 1 describes clinical test results on seasonal allergic rhinitis for an intranasal steroid agent beclomethasone and a histamine H1 receptor antagonist loratadine. According to the publication, it can be seen that a change in scores of nasal symptoms, i.e. sneezing, nasal discharge, nasal congestion, and nasal itching, after two weeks since the start of the oral administration, per symptom from the placebo group is such that the change in a loratadine group is 0.31, i.e. a difference between 0.53 and 0.22, and that the change in a beclomethasone group is 0.48, i.e. a difference between 0.70 and 0.22. In other words, it can be seen that the intranasal steroid agent was 1.55 times effective of the histamine H1 receptor antagonist. […]

[4] = tested on: seasonal allergic rhinitis patients; conditions: after two weeks, cited from earlier work; for change in nasal symptom scores per symptom from the placebo group: sneezing, nasal discharge, nasal congestion, nasal itching
[5] = tested on: guinea pig rhinitis model; test: Evaluation Test 1, guinea pig rhinitis model (OVA), nasal airway resistance, Formula (I) + fexofenadine hydrochloride; type: in vivo; conditions: single, 20 minutes after OVA challenge
Procedure: Guinea pig rhinitis models were generated by causing rhinitis-inflammation in 5 to 6 week-old male Harley guinea pigs in the following manner. Concretely, on day 0, the guinea pigs were intraperitoneally administered with cyclophosphamide diluted with physiological saline at 30 mg/kg. Two days later (on day 2), a mixed solution of aluminum hydroxide gel (10 mg), ovalbumin (OVA) (1 mg) and physiological saline was intraperitoneally administered to establish active sensitization. Thereafter, on day 9, a 1% OVA solution dissolved in physiological saline was intranasally challenged by 20 μL each to both the nostrils. Further, on day 16, a 2% OVA solution dissolved in physiological saline was intranasally challenged by 10 μL each to both the nostrils, thereby generating guinea pig rhinitis models that caused rhinitis-inflammation. Here, a control group that serves as a control was intranasally challenged by physiological saline in place of intranasally challenging by the OVA solution.
Specifically, prepared were the following: […]
Next, on day 23, a test substance listed in Table 7 was orally administered using a 0.5% methylcellulose (MC) solution as a medium, and one hour thereafter a 2% OVA solution dissolved in physiological saline was intranasally challenged by 10 μL each to both the nostrils (Group 1 was intranasally challenged by physiological saline in place of intranasal challenge by the OVA solution), and the nasal airway resistance was evaluated and analyzed. […] Here, nasal airway resistance (nRaw) is an average of specific airway resistance (sRaw) of 200 times or more breathing, and the analyzed values used in the comparisons of pharmacological efficacy are expressed as a percent change based on the nasal airway resistance measured before the intranasal challenge (100%) (IAR: immediately airway response). In addition, the between-group comparison was carried out according to one-sided t test, and the suppression percentage to Group 2 (Vehicle Group) was calculated by the following formula: […]

[6] = tested on: seasonal allergic rhinitis patients; conditions: after two weeks; cited from earlier work
[7] = tested on: seasonal allergic rhinitis patients; conditions: after two weeks; montelukast 10 mg, loratadine 10 mg, combination 10 mg each; cited from earlier work
[8] = after two weeks from administration

Cl.Cl.O=C(O)COCCN1CCN(C(c2ccccc2)c2ccc(Cl)cc2)CC1 (racemic) [Cetirizine Hydrochloride, 2-(2-{4-[(RS)-(4-chlorophenyl)phenylmethyl]piperazin-1-yl}ethoxy)acetic acid dihydrochloride]
suppression percentage of nasal airway resistance increase [1]: 20%
Change in Nasal Congestion Scores, Difference with Placebo Group [2, 8]: −0.13
Change in Nasal Discharge Scores, Difference with Placebo Group [2, 8]: −0.31**
Change in Nasal Itching Scores, Difference with Placebo Group [2, 8]: −0.28**
Change in Sneezing Scores, Difference with Placebo Group [2, 8]: −0.34***
Change in Total of Three Nasal Symptom Scores, Difference with Placebo Group ([2]; after two weeks from administration, dihydrochloride): −0.73**
Change in Total of Three Nasal Symptom Scores, Difference with Placebo Group ([2]; after two weeks from administration, listed as cetirizine, dihydrochloride): 0.73
change per symptom (total of three nasal symptom scores, from the placebo group) ([2]; after two weeks, worked out from Table 2): 0.24

C[C@H]1C[C@H]2[C@@H]3CCC4=CC(=O)C=C[C@]4(C)[C@@]3(Cl)[C@@H](O)C[C@]2(C)[C@@]1(O)C(=O)CO [beclomethasone]
effect of intranasal steroid agent relative to histamine H1 receptor antagonist [3]: 1.55 times
change in nasal symptom scores per symptom since the start of the administration [4]: 0.70
change in nasal symptom scores per symptom from the placebo group [4]: 0.48

CC(C)(C(=O)O)c1ccc(C(O)CCCN2CCC(C(O)(c3ccccc3)c3ccccc3)CC2)cc1.Cl (racemic) [fexofenadine hydrochloride, (±)-2-{4-[1-hydroxy-4-[4-(hydroxydiphenylmethyl)piperidino]butyl]phenyl}-2-methylpropanoic acid monohydrochloride]
suppression percentage of nasal airway resistance increase ([5]; Group 5, fexofenadine hydrochloride 20 mg/kg oral): 15%

CC(C)Oc1ccc(S(=O)(=O)N2CCN(c3ccc(-c4ncco4)c(OCC(=O)O)c3)CC2)cc1 [Formula (I), [2-(oxazol-2-yl)-5-(4-{4-[(propan-2-yl)oxy]phenylsulfonyl}piperazin-1-yl)phenoxy]acetic acid]
suppression percentage of nasal airway resistance increase [1]: 32%
Change in Nasal Congestion Scores, Difference with Cetirizine Hydrochloride Group [2, 8]: −0.03
Change in Nasal Congestion Scores, Difference with Placebo Group [2, 8]: −0.16*
Change in Nasal Discharge Scores, Difference with Cetirizine Hydrochloride Group [2, 8]: 0.13
Change in Nasal Discharge Scores, Difference with Placebo Group [2, 8]: −0.19**
Change in Nasal Itching Scores, Difference with Cetirizine Hydrochloride Group [2, 8]: 0.21**
Change in Nasal Itching Scores, Difference with Placebo Group [2, 8]: −0.06
Change in Sneezing Scores, Difference with Cetirizine Hydrochloride Group [2, 8]: 0.23**
Change in Sneezing Scores, Difference with Placebo Group [2, 8]: −0.11
Change in Total of Three Nasal Symptom Scores, Difference with Cetirizine Hydrochloride Group [2, 8]: 0.28
Change in Total of Three Nasal Symptom Scores, Difference with Placebo Group [2, 8]: −0.45*
suppression percentage of nasal airway resistance increase ([5]; Group 3, Formula (I) 1 mg/kg oral): 21%
suppression percentage of nasal airway resistance increase ([5]; Group 4, Formula (I) 10 mg/kg oral): 47%

CCOC(=O)N1CCC(=C2c3ccc(Cl)cc3CCc3cccnc32)CC1 [loratadine, ethyl 4-(8-chloro-5,6-dihydro-11H-benzo[5,6]cyclohepta[1,2-b]pyridin-11-ylidene)-1-piperidinecarboxylate]
change per symptom of the nasal symptom scores since the start of the administration [6]: 0.40
change per symptom of the nasal symptom scores, based on the placebo group [6]: 0.09
change per symptom of the nasal symptom scores since the start of the administration [7]: 0.34
change per symptom of the nasal symptom scores, based on the placebo group [7]: 0.09
change in nasal symptom scores per symptom since the start of the administration [4]: 0.53
change in nasal symptom scores per symptom from the placebo group [4]: 0.31
